From PubChem BioAssay (NCI)
Where “and” joins values, the source holds several entries; their conditions need not be identical. Equal entries are not always repeated.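 Test compounds were applied to cells in 96-well plates for 48 hours at 5 doses. At the GI50, growth is halved. TGI is the concentration that stops growth completely.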

These compounds were tested on DU-145 prostate (assay: NCI anticancer screen, dose series, 48 h).

Structure (SMILES)	GI50 [µM]	TGI [µM]
C[C@]12CCc3sc(NCCc4ccccc4)nc3C1=CC[C@@H]1[C@@H]2CC[C@]2(C)C(=O)CC[C@@H]12	3.64	> 100
COc1cccc(C2=C(c3c(C)n(C)c4ccccc34)C(=O)NC2=O)c1	> 25	> 25
CCN(Cc1ccc(F)cc1)c1ccc(CO)c(F)c1	23.5	> 100
CN(C)CCNC(=O)c1cc([N+](=O)[O-])cc2c1Oc1ccccc1O2		> 100
O=C1C(N2CC2)=C(N2CC2)C(=O)C(N2CC2)=C1N1CC1		0.487
CCCCC[C@H]1C/C=C2/C(=O)C=C[C@@H]2C/C=C\CCCC(=O)O[C@@H](CCCCC)C/C=C2/C(=O)C=C[C@@H]2C/C=C\CCCC(=O)O1	0.355	1.34
O=C(Nc1cccc(-n2cc(-c3ccncc3)c(-c3cc(O)cc(Cl)c3)n2)c1)Nc1ccc(Cl)c(C(F)(F)F)c1	3.27	11.7
CNCCCn1c2c(c3ccc([N+](=O)[O-])cc3c1=O)C(=O)c1cc(OC)cnc1-2	0.052	1.15
CCCc1cc(=O)[nH]c(-n2nc(C)cc2C)n1	7.66	> 100
COc1cc2oc3cc(=O)cc4oc(-c5ccccc5)cc(c2c2c1CCC(c1ccccc1)O2)c43 (configuration not stated)		> 100
c1cc2n(n1)CCN2		> 10000
COc1cc(Nc2c(C#N)cnc3cc(OCCCN4CCN(C)CC4)c(OC)cc23)c(Cl)cc1Cl	1.19	14.6
O=CN/C=C/c1cccc(O)c1		> 97.5
Nc1ccc2c(SCc3ccc([N+](=O)[O-])cc3)c3ccccc3nc2c1		17.9
COC1=CC(c2ccc[nH]2)=N/C1=C\c1[nH]c(C)c(C(=O)CCCCC(=O)NC(C)(C)C)c1C	1.69	3.79
O=c1ccn(C2CC(O)C(CO)O2)c(=O)[nH]1 (configuration not stated)	> 5000	> 5000
O=C(N/C(=C/c1ccc(Cl)cc1Cl)c1nc2ccccc2s1)c1ccccc1		31.5
CCOC(=O)c1cc2c(n1Cc1cccc(OC)c1)-c1oncc1CCC2	2.46	> 32.5
COc1c(O)cc2oc(-c3ccc(O)cc3)cc(=O)c2c1O		> 100
O=c1cc(-c2ccccc2F)[nH]c2ccc(N3CCCC3)cc12	< 0.001	
COc1ccc(/C=C/C(=O)c2ccc(O)c(CN3CCN(c4cc5c(cc4F)c(=O)c(C(=O)O)cn5C4CC4)CC3)c2)cc1	1.47	> 100
O=C(Nc1ccncc1)C(=O)c1cn(Cc2ccc(Cl)cc2)c2ccccc12	0.051	> 65

Each compound was assayed on HCC-2998 colon (assay: NCI anticancer screen, dose series, 48 h).

Structure (SMILES)	GI50 [µM]	TGI
C[C@]12CCc3sc(NCCc4ccccc4)nc3C1=CC[C@@H]1[C@@H]2CC[C@]2(C)C(=O)CC[C@@H]12	8.19	> 100 µM
COc1cccc(C2=C(c3c(C)n(C)c4ccccc34)C(=O)NC2=O)c1	> 25	> 25 µM
CCN(Cc1ccc(F)cc1)c1ccc(CO)c(F)c1	18.7	54.6 µM
CN(C)CCNC(=O)c1cc([N+](=O)[O-])cc2c1Oc1ccccc1O2		24.1 µM
O=C1C(N2CC2)=C(N2CC2)C(=O)C(N2CC2)=C1N1CC1	0.168	0.569 µM
CCCCC[C@H]1C/C=C2/C(=O)C=C[C@@H]2C/C=C\CCCC(=O)O[C@@H](CCCCC)C/C=C2/C(=O)C=C[C@@H]2C/C=C\CCCC(=O)O1	0.422	0.816 µM
O=C(Nc1cccc(-n2cc(-c3ccncc3)c(-c3cc(O)cc(Cl)c3)n2)c1)Nc1ccc(Cl)c(C(F)(F)F)c1	3.93	13.4 µM
CNCCCn1c2c(c3ccc([N+](=O)[O-])cc3c1=O)C(=O)c1cc(OC)cnc1-2	0.204	1.06 µM
CCCc1cc(=O)[nH]c(-n2nc(C)cc2C)n1	14.3	> 100 µM
COc1cc2oc3cc(=O)cc4oc(-c5ccccc5)cc(c2c2c1CCC(c1ccccc1)O2)c43 (configuration not stated)		> 100 µM
c1cc2n(n1)CCN2		> 7040 µM
COc1cc(Nc2c(C#N)cnc3cc(OCCCN4CCN(C)CC4)c(OC)cc23)c(Cl)cc1Cl	3.08	9.21 µM
O=CN/C=C/c1cccc(O)c1		> 100 µM
Nc1ccc2c(SCc3ccc([N+](=O)[O-])cc3)c3ccccc3nc2c1		> 54 µM
COC1=CC(c2ccc[nH]2)=N/C1=C\c1[nH]c(C)c(C(=O)CCCCC(=O)NC(C)(C)C)c1C	1.88	6.09 µM
O=c1ccn(C2CC(O)C(CO)O2)c(=O)[nH]1 (configuration not stated)	> 5000	> 5000 µM
CCOC(=O)c1cc2c(n1Cc1cccc(OC)c1)-c1oncc1CCC2	5.58	> 96.4 µM
COc1c(O)cc2oc(-c3ccc(O)cc3)cc(=O)c2c1O		80.3 µM
O=c1cc(-c2ccccc2F)[nH]c2ccc(N3CCCC3)cc12	0.0204	0.455 µM and 0.0546 µM
COc1ccc(/C=C/C(=O)c2ccc(O)c(CN3CCN(c4cc5c(cc4F)c(=O)c(C(=O)O)cn5C4CC4)CC3)c2)cc1	4.15	> 100 µM
O=C(Nc1ccncc1)C(=O)c1cn(Cc2ccc(Cl)cc2)c2ccccc12	0.114	> 100 µM

What follows are compounds tested on HS 578T breast (assay: NCI anticancer screen, dose series, 48 h).

Structure (SMILES)	GI50 [µM]	TGI [µM]
C[C@]12CCc3sc(NCCc4ccccc4)nc3C1=CC[C@@H]1[C@@H]2CC[C@]2(C)C(=O)CC[C@@H]12	2.85	> 100
COc1cccc(C2=C(c3c(C)n(C)c4ccccc34)C(=O)NC2=O)c1	12.1	> 25
CCN(Cc1ccc(F)cc1)c1ccc(CO)c(F)c1	17.2	> 75.5
CN(C)CCNC(=O)c1cc([N+](=O)[O-])cc2c1Oc1ccccc1O2		99.8
O=C1C(N2CC2)=C(N2CC2)C(=O)C(N2CC2)=C1N1CC1	1.28	6.21
CCCCC[C@H]1C/C=C2/C(=O)C=C[C@@H]2C/C=C\CCCC(=O)O[C@@H](CCCCC)C/C=C2/C(=O)C=C[C@@H]2C/C=C\CCCC(=O)O1	1.28	10.1
O=C(Nc1cccc(-n2cc(-c3ccncc3)c(-c3cc(O)cc(Cl)c3)n2)c1)Nc1ccc(Cl)c(C(F)(F)F)c1	3.29	> 100
CNCCCn1c2c(c3ccc([N+](=O)[O-])cc3c1=O)C(=O)c1cc(OC)cnc1-2	1.17	5.27
CCCc1cc(=O)[nH]c(-n2nc(C)cc2C)n1	15	> 100
COc1cc2oc3cc(=O)cc4oc(-c5ccccc5)cc(c2c2c1CCC(c1ccccc1)O2)c43 (configuration not stated)		> 100
c1cc2n(n1)CCN2		> 5490
COc1cc(Nc2c(C#N)cnc3cc(OCCCN4CCN(C)CC4)c(OC)cc23)c(Cl)cc1Cl	1.6	26
O=CN/C=C/c1cccc(O)c1		> 95.1
Nc1ccc2c(SCc3ccc([N+](=O)[O-])cc3)c3ccccc3nc2c1		48
COC1=CC(c2ccc[nH]2)=N/C1=C\c1[nH]c(C)c(C(=O)CCCCC(=O)NC(C)(C)C)c1C	1.75	4.26
O=c1ccn(C2CC(O)C(CO)O2)c(=O)[nH]1 (configuration not stated)	> 5000	> 5000
O=C(N/C(=C/c1ccc(Cl)cc1Cl)c1nc2ccccc2s1)c1ccccc1		44.3
CCOC(=O)c1cc2c(n1Cc1cccc(OC)c1)-c1oncc1CCC2	1.6	24.8
COc1c(O)cc2oc(-c3ccc(O)cc3)cc(=O)c2c1O		73.8
O=c1cc(-c2ccccc2F)[nH]c2ccc(N3CCCC3)cc12	< 0.001	
COc1ccc(/C=C/C(=O)c2ccc(O)c(CN3CCN(c4cc5c(cc4F)c(=O)c(C(=O)O)cn5C4CC4)CC3)c2)cc1	0.714	> 100
O=C(Nc1ccncc1)C(=O)c1cn(Cc2ccc(Cl)cc2)c2ccccc12	0.0339	> 100

Each compound was assayed on HT29 colon (assay: NCI anticancer screen, dose series, 48 h).

Structure (SMILES)	GI50 [µM]	TGI [µM]
C[C@]12CCc3sc(NCCc4ccccc4)nc3C1=CC[C@@H]1[C@@H]2CC[C@]2(C)C(=O)CC[C@@H]12	2.2	8.11
COc1cccc(C2=C(c3c(C)n(C)c4ccccc34)C(=O)NC2=O)c1	14.4	> 25
CCN(Cc1ccc(F)cc1)c1ccc(CO)c(F)c1	16	> 53.9
CN(C)CCNC(=O)c1cc([N+](=O)[O-])cc2c1Oc1ccccc1O2		> 100
O=C1C(N2CC2)=C(N2CC2)C(=O)C(N2CC2)=C1N1CC1	0.181	15.1
CCCCC[C@H]1C/C=C2/C(=O)C=C[C@@H]2C/C=C\CCCC(=O)O[C@@H](CCCCC)C/C=C2/C(=O)C=C[C@@H]2C/C=C\CCCC(=O)O1	0.218	0.822
O=C(Nc1cccc(-n2cc(-c3ccncc3)c(-c3cc(O)cc(Cl)c3)n2)c1)Nc1ccc(Cl)c(C(F)(F)F)c1	2.12	4.58
CNCCCn1c2c(c3ccc([N+](=O)[O-])cc3c1=O)C(=O)c1cc(OC)cnc1-2	0.0558	0.38
CCCc1cc(=O)[nH]c(-n2nc(C)cc2C)n1	6.68	38.5
COc1cc2oc3cc(=O)cc4oc(-c5ccccc5)cc(c2c2c1CCC(c1ccccc1)O2)c43 (configuration not stated)		66.2
c1cc2n(n1)CCN2		> 10000
COc1cc(Nc2c(C#N)cnc3cc(OCCCN4CCN(C)CC4)c(OC)cc23)c(Cl)cc1Cl	0.689	5.38
O=CN/C=C/c1cccc(O)c1		74.8
Nc1ccc2c(SCc3ccc([N+](=O)[O-])cc3)c3ccccc3nc2c1		32.6
COC1=CC(c2ccc[nH]2)=N/C1=C\c1[nH]c(C)c(C(=O)CCCCC(=O)NC(C)(C)C)c1C	0.552	3.11
O=c1ccn(C2CC(O)C(CO)O2)c(=O)[nH]1 (configuration not stated)	> 5000	> 5000
O=C(N/C(=C/c1ccc(Cl)cc1Cl)c1nc2ccccc2s1)c1ccccc1		40.1
CCOC(=O)c1cc2c(n1Cc1cccc(OC)c1)-c1oncc1CCC2	0.401	22.8
COc1c(O)cc2oc(-c3ccc(O)cc3)cc(=O)c2c1O		> 100
O=c1cc(-c2ccccc2F)[nH]c2ccc(N3CCCC3)cc12	< 0.001	
COc1ccc(/C=C/C(=O)c2ccc(O)c(CN3CCN(c4cc5c(cc4F)c(=O)c(C(=O)O)cn5C4CC4)CC3)c2)cc1	1.08	> 100
O=C(Nc1ccncc1)C(=O)c1cn(Cc2ccc(Cl)cc2)c2ccccc12	0.0363	> 100

These compounds were tested on NCI-H522 lung (assay: NCI anticancer screen, dose series, 48 h).

Structure (SMILES)	GI50 [µM]	TGI [µM]
C[C@]12CCc3sc(NCCc4ccccc4)nc3C1=CC[C@@H]1[C@@H]2CC[C@]2(C)C(=O)CC[C@@H]12	1.78	3.64
COc1cccc(C2=C(c3c(C)n(C)c4ccccc34)C(=O)NC2=O)c1	15.3	> 25
CCN(Cc1ccc(F)cc1)c1ccc(CO)c(F)c1	14.1	35.8
CN(C)CCNC(=O)c1cc([N+](=O)[O-])cc2c1Oc1ccccc1O2		> 100
O=C1C(N2CC2)=C(N2CC2)C(=O)C(N2CC2)=C1N1CC1	0.432	2.21
CCCCC[C@H]1C/C=C2/C(=O)C=C[C@@H]2C/C=C\CCCC(=O)O[C@@H](CCCCC)C/C=C2/C(=O)C=C[C@@H]2C/C=C\CCCC(=O)O1	0.16	0.655
O=C(Nc1cccc(-n2cc(-c3ccncc3)c(-c3cc(O)cc(Cl)c3)n2)c1)Nc1ccc(Cl)c(C(F)(F)F)c1	1.32	4.48
CNCCCn1c2c(c3ccc([N+](=O)[O-])cc3c1=O)C(=O)c1cc(OC)cnc1-2	0.0838	0.464
CCCc1cc(=O)[nH]c(-n2nc(C)cc2C)n1	4.98	30.7
COc1cc2oc3cc(=O)cc4oc(-c5ccccc5)cc(c2c2c1CCC(c1ccccc1)O2)c43 (configuration not stated)		> 100
c1cc2n(n1)CCN2		> 7740
COc1cc(Nc2c(C#N)cnc3cc(OCCCN4CCN(C)CC4)c(OC)cc23)c(Cl)cc1Cl	0.393	6.36
O=CN/C=C/c1cccc(O)c1		65.4
Nc1ccc2c(SCc3ccc([N+](=O)[O-])cc3)c3ccccc3nc2c1		15.1
COC1=CC(c2ccc[nH]2)=N/C1=C\c1[nH]c(C)c(C(=O)CCCCC(=O)NC(C)(C)C)c1C	2.09	6.73
O=c1ccn(C2CC(O)C(CO)O2)c(=O)[nH]1 (configuration not stated)	> 5000	> 5000
O=C(N/C(=C/c1ccc(Cl)cc1Cl)c1nc2ccccc2s1)c1ccccc1		24.7
CCOC(=O)c1cc2c(n1Cc1cccc(OC)c1)-c1oncc1CCC2	0.222	0.704
COc1c(O)cc2oc(-c3ccc(O)cc3)cc(=O)c2c1O		> 100
O=c1cc(-c2ccccc2F)[nH]c2ccc(N3CCCC3)cc12	< 0.001	
COc1ccc(/C=C/C(=O)c2ccc(O)c(CN3CCN(c4cc5c(cc4F)c(=O)c(C(=O)O)cn5C4CC4)CC3)c2)cc1	1.98	28.7
